T1: PML-RARA oncogenic fusion protein (Homo sapiens, UniProt P10276+P29590)
T1 construct: PML portion (fusion partner, human Protein PML, P29590); endogenous in cells; host or cells: NB4 acute promyelocytic leukemia cells
T1 sequence (P29590+P10276 with tags, fused parts or gaps): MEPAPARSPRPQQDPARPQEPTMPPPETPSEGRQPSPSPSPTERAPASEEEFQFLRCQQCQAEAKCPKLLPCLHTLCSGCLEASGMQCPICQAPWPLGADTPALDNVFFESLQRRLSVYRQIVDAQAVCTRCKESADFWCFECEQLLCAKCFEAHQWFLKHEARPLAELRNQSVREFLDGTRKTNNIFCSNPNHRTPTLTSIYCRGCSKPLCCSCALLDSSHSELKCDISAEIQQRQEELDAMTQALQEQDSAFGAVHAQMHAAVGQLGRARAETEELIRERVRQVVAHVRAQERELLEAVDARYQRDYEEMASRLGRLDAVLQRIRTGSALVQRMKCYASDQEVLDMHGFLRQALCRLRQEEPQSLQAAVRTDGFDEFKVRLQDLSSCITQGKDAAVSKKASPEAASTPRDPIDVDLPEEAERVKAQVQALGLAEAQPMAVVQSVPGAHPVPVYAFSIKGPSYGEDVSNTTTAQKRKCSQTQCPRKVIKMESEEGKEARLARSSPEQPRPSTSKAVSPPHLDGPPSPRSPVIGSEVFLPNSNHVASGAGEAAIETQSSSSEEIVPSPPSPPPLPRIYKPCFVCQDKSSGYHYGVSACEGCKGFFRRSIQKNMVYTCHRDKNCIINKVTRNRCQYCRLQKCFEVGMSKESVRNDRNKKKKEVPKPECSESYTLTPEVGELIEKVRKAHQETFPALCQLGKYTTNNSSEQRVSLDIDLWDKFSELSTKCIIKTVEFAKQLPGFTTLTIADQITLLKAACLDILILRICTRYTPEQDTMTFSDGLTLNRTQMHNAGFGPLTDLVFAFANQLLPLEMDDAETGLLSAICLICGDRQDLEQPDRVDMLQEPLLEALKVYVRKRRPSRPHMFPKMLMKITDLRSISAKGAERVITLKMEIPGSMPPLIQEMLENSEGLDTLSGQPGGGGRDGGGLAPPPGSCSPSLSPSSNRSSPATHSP


Tests used:
[1] = target: T1, PML-RARA oncogenic fusion protein; test: Western blotting analysis of the PML epitope; assay type: cell-based; conditions: NB4 cells, 48 hours ATRA versus DMSO
Experimental: Western blotting analysis. Whole cell or nuclear lysates were generated by resuspending cells or nuclei in RIPA (Boston BioProducts) supplemented with 1× cOmplete EDTA-free protease inhibitor cocktail (Roche). Lysates were incubated on ice for 30 minutes, sonicated via a Sonic Dismembrator 100 (Fisher Scientific) at setting 3 with 3-4 pulses of 15 seconds on/off on ice, and treated with benzonase for an additional 30 minutes on ice. Lysates were clarified by centrifugation (15,000×g, 20 minutes, 4° C.) and their concentrations quantified via the detergent-compatible Bradford assay (Thermo Fisher Scientific). All Western blots were run on NuPAGE 4-12% Bis-Tris protein gels (Thermo Fisher Scientific) and transferred to 0.2 μm nitrocellulose membranes (GE Healthcare). Membranes were blocked with 3% milk in PBS-T and incubated overnight with primary antibody and subsequently with secondary antibody after brief washing with PBS-T. Chemiluminescence was determined by applying ECL Western Blotting detection reagent (GE Healthcare) to membranes and imaging on an Amersham Imager 600 (GE Healthcare). Membranes were stripped with Restore PLUS Stripping Buffer (Thermo Fisher Scientific). Primary antibodies used were anti-FLAG M2 (mouse, Sigma-Aldrich, F1804, 1:2000), anti-PCNA (mouse, PC10, Santa Cruz Biotechnology sc-56, 1:1000), and anti-PML (rabbit, Bethyl A301-[MUT], 1:1000). […]

NB4 cells [2] = test: Cell proliferation assay (CellTiter-Glo); assay type: cell-based, human; conditions: 1 μM ATRA, 48 hours, versus DMSO
Experimental: Cell proliferation assay. NB4 cells were seeded at a density of 5e5 cells/mL subjected to either DMSO or 1 μM ATRA. After 48 hours, 50 μL cell suspension was added to 50 μL CellTiter-Glo reagent, incubated for 10 minutes at room temperature, and assayed for luminescence with a SpectraMax iD3 plate reader.

NB4 cells [3] = test: Granulocytic differentiation analysis (flow cytometry); assay type: cell-based, human; conditions: 1 μM ATRA, 48 hours, versus DMSO
Experimental: NB4 cells treated either with DMSO or 1 μM ATRA were washed with 2% fetal bovine serum prior to staining. Anti-human CD11b-PE-Cy7 antibody conjugate (Clone: ICRF44, Biolegend Catalog #301321; 1:100) and anti-human CD11c-APC antibody conjugate (Clone: B-1y6, BD Pharmingen #559877; 1:100) were incubated with samples for 20 minutes and then washed to remove excess antibody. Stained samples were analyzed on a Beckman Coulter CytoFLEX LX flow cytometer with the CytoExpert v2.3.1.22 software. Data were analyzed with FlowJo v10.0.7.

NB4 cells [4] = test: iDAPT-MS of NB4 nuclei, ATRA versus DMSO; assay type: cell-based, human; conditions: TP3 probe
Experimental: DNA and protein tagging by iDAPT. All iDAPT proteomic labeling assays were performed as described below unless indicated otherwise. 2.5 μmol MEDS-A/B, 2 μmol enzyme, and 1 μmol hemin chloride per channel were incubated at room temperature for 1 hour. 1e7 cells per sample were washed (500×g, 5 minutes, 4° C.), lysed and triturated in 100 μL LB1 (10 mM Tris-HCl pH 7.5, 10 mM NaCl, 3 mM MgCl2, 1% BSA, 0.01% digitonin, 0.1% Tween-20, 0.1% NP-40, and 1× cOmplete EDTA-free protease inhibitor cocktail [Roche]) for 3 minutes, and subsequently supplemented with an additional 1 mL of LB2 (10 mM Tris-HCl pH 7.5, 10 mM NaCl, 3 mM MgCl2, 1% BSA, 0.1% Tween-20, and 1× protease inhibitor). Nuclei were pelleted (500×g, 10 minutes, 4° C.), resuspended with tagmentation reaction mixture (20% dimethylformamide, 10 mM MgCl2, 20 mM Tris-HCl pH 7.5, 33% 1×PBS, 1% BSA, 0.01% digitonin, 0.1% Tween-20, 500 μM biotin-phenol, 1× protease inhibitor, and 2 pmol enzyme equivalent of enzyme:DNA:heme complex in a total volume of 500 μL), and incubated at 37° C. for 30 minutes with agitation on a thermomixer (1,000 rpm). […] Lysates were clarified by centrifugation (15,000×g, 20 minutes, 4° C.), quantified via the detergent-compatible Bradford assay (Thermo Fisher Scientific), and subjected to either Western blotting or quantitative mass spectrometry analyses as described below. […]

[5] = Peroxidase activity assay (Amplex UltraRed/resorufin fluorescence); assay type: biochemical; conditions: 1 mM hydrogen peroxide, one minute
Experimental: Peroxidase activity assay. 5 pmol enzyme was incubated with 2.5 pmol hemin chloride (dissolved in DMSO, Cayman Chemical) for 1 hour at room temperature. This molar ratio was selected given reports of APEX2 maximal heme occupancy between 40-57%. Heme:protein complexes were then subjected to 50 μM Amplex UltraRed (Thermo Fisher Scientific) and 1 mM hydrogen peroxide for 1 minute at room temperature in a total volume of 100 μL with 1×PBS. Reactions were then quenched with 100 μL 2× quenching solution (10 mM Trolox, 20 mM sodium ascorbate, and 20 mM NaN3 in 1×PBS), and fluorescence intensities were measured on a SpectraMax iD3 plate reader, with excitation at 530 nm and emission at 590 nm.
Peroxidase activity assay. 5 pmol enzyme was incubated with 2.5 pmol hemin chloride (Cayman Chemical, dissolved in DMSO) for 1 hour at room temperature. This molar ratio was selected given reports of APEX2 maximal heme occupancy between 40-57%. […] Reactions were then quenched with 100 μL 2× quenching solution (10 mM Trolox, 20 mM sodium ascorbate, and 20 mM NaN3 in 1×PBS), and fluorescence intensities were measured on a SpectraMax iD3 plate reader with the SoftMax Pro v7.0.3 software, with excitation at 530 nm and emission at 590 nm.

HEK293T nuclei = test: iDAPT protein labeling, western blot of labeled nuclear lysates; assay type: biochemical, human; conditions: extracted HEK293T nuclei
Experimental: DNA and protein tagging by iDAPT. All iDAPT proteomic labeling assays were performed as described below unless indicated otherwise. 2.5 μmol MEDS-A/B, 2 μmol enzyme, and 1 μmol hemin chloride per channel were incubated at room temperature for 1 hour. 1e7 cells per sample were washed (500×g, 5 minutes, 4° C.), lysed and triturated in 100 μL LB1 (10 mM Tris-HCl pH 7.5, 10 mM NaCl, 3 mM MgCl2, 1% BSA, 0.01% digitonin, 0.1% Tween-20, 0.1% NP-40, and 1× cOmplete EDTA-free protease inhibitor cocktail [Roche]) for 3 minutes, and subsequently supplemented with an additional 1 mL of LB2 (10 mM Tris-HCl pH 7.5, 10 mM NaCl, 3 mM MgCl2, 1% BSA, 0.1% Tween-20, and 1× protease inhibitor). Nuclei were pelleted (500×g, 10 minutes, 4° C.), resuspended with tagmentation reaction mixture (20% dimethylformamide, 10 mM MgCl2, 20 mM Tris-HCl pH 7.5, 33% 1×PBS, 1% BSA, 0.01% digitonin, 0.1% Tween-20, 500 μM biotin-phenol, 1× protease inhibitor, and 2 pmol enzyme equivalent of enzyme:DNA:heme complex in a total volume of 500 μL), and incubated at 37° C. for 30 minutes with agitation on a thermomixer (1,000 rpm). 5 μL of tagmentation mix was saved for quality assessment as described above for ATAC-seq/iDAPT-seq sample preparation. The remaining nuclear suspension was then washed 2× with 1×PBS supplemented with 500 μM biotin-phenol, 1% BSA, 0.1% Tween-20, and 1× protease inhibitor (3000×g, 5 minutes, 4° C.) and labeled with 1 mM hydrogen peroxide and 500 μM biotin-phenol for 1 minute in 1×PBS with 1× protease inhibitor in a volume of 500 μL. Peroxidation reactions were quenched with 500 μL 2× quenching buffer (10 mM Trolox, 20 mM sodium ascorbate, 20 mM NaN3, and 1× protease inhibitor in 1×PBS). Labeled nuclei were then pelleted, washed with 1× quenching buffer, resuspended in 500 μL RIPA containing protease inhibitors, and frozen at −80° C. Lysates were thawed on ice, sonicated via a Sonic Dismembrator 100 (Fisher Scientific, setting 3, 15 seconds, 4 pulses), and incubated on ice for 30 minutes after the addition of 1 μL benzonase (EMD Millipore). Lysates were clarified by centrifugation (15,000×g, 20 minutes, 4° C.), quantified via the detergent-compatible Bradford assay (Thermo Fisher Scientific), and subjected to either Western blotting or quantitative mass spectrometry analyses as described below. For NB4 cell analysis, an additional endogenous peroxidase blocking step was added after nuclear extraction and before tagmentation: nuclei were resuspended in 500 μL 1×PBS containing 1% BSA, 0.03% hydrogen peroxide, and 0.1% NaN3 and incubated on ice for 30 minutes. Nuclei were pelleted and washed 4× with 1×PBS/1% BSA (3000×g, 5 minutes, 4° C.). Residual hydrogen peroxide was monitored by colorimetric assessment of supernatant via Quantofix peroxides test stick (Sigma).
Western blotting analysis. Whole cell or nuclear lysates were generated by resuspending cells or nuclei in RIPA (Boston BioProducts) supplemented with 1× cOmplete EDTA-free protease inhibitor cocktail (Roche). […] Lysates were clarified by centrifugation (15,000×g, 20 minutes, 4° C.) and their concentrations quantified via the detergent-compatible Bradford assay (Thermo Fisher Scientific). […] Membranes were blocked with 3% milk in PBS-T and incubated overnight with primary antibody and subsequently with secondary antibody after brief washing with PBS-T. Chemiluminescence was determined by applying ECL Western Blotting detection reagent (GE Healthcare) to membranes and imaging on an Amersham Imager 600 (GE Healthcare). […]

Row | Molecule | effect on PML-RARA oncogenic fusion protein [1] | proliferation (cell counts) (NB4 cells [2]) | differentiation (NB4 cells [3]) | enrichment of PU.1/SPI1, CEBPB, and CEBPE on open chromatin (NB4 cells [4]) | enrichment of RARA on open chromatin (NB4 cells [4]) | peroxidase activity via resorufin fluorescence [5] | peroxidase-dependent biotin signal (HEK293T nuclei)
1 | CC1=C(/C=C/C(C)=C/C=C/C(C)=C/C(=O)O)C(C)(C)CCC1 [ATRA, All-trans retinoic acid] | degradation of the PML-RARA oncogenic fusion protein | decreased proliferation | granulocytic differentiation | positive enrichment | negative enrichment |  | 
2 | APEX2-F: FLAG-tagged APEX2 peroxidase alone, negative control probe; amino acid SEQ ID NO: 21 (protein, FLAG tag) MGKSYPTVSADYQDAVEKAKKKLRGFIAEKRCAPLMLRLAFHSAGTFDKGTKTGGPFGTIKHPAELAHSANNGLDIAVRLLEPLKAEFPILSYADFYQLAGVVAVEVTGGPKVPFHPGREDKPEPPPEGRLPDPTKGSDHLRDVFGKAMGLTDQDIVALSGGHTIGAAHKERSGFEGPWTSNPLIFDNSYFTELLSGEKEGLLQLPSDKALLSDPVFRPLVDKYAADEDAFFADYAEAHQKLSELGFADADYKDDDDK |  |  |  |  |  | detected | low signal

Reference: patent US20230024461A1, “METHODS FOR DUAL DNA/PROTEIN TAGGING OF OPEN CHROMATIN” (Beth Israel Deaconess Medical Center, Inc., priority 2019, published 2023)
